According to publication PMC10016340 (Chemical Science, 2023):
Like-named read-outs stand apart in the source and are kept apart here. Blank lines part the entries; values can stand above or below the compound they belong to.

Experiments:
[1] = target: T1, αSO (α-synuclein oligomers) (Homo sapiens, UniProt P37840); assay: Membrane permeabilization; assay type: biochemical; settings: for Response in dose-response calcein assay: even at 20 μM
[2] = target: αSOs-Alexa488 binding to DOPG liposomes (Homo sapiens, UniProt P37840); assay: FIDA αSO-vesicle binding inhibition assay; settings: 5 μM compound, 50 μM DOPG; αSO-vesicle complex without compound ∼60 nm
[3] = Ultracentrifugation for compound-vesicle binding; settings: 100 μM compound, 1 mM DOPG vesicles, 30 min, ultracentrifugation 1 h 40 000 rpm
α-syn = α-syn (Homo sapiens, UniProt P37840); assay: ThT aggregation kinetics of α-syn; assay type: biochemical; settings: for Effect on α-syn fibril formation (ThT, words): 300 rpm, 37 °C
αSO = αSO (Homo sapiens, UniProt P37840); assay: biochemical; assay type: binding; settings: for αSO binding signal in sandwich ELISA vs positive control: 2 mM compound, 1 μg mL^−1 αSOs
αSOs-Alexa488 [4] = target: T2, αSOs-Alexa488 (Homo sapiens, UniProt P37840); assay: FIDA binding of αSOs to neuronal proteins in solution
αSOs-Alexa488 [5] = target: T2, αSOs-Alexa488; assay: FIDA effect of lead compounds on free αSOs; assay type: binding; settings: 150 nM αSO, 5 μM compound; 13% without compound
[6] = target: T1, αSO (α-synuclein oligomers); settings: cited from earlier work
[7] = tested on: human neuroblastoma cells; settings: by inhibiting interactions with lipid membranes; cited from earlier work

IC50 [1]: 0.32 µM
Apparent size (Rh) of αSOs-Alexa488 in the presence of DOPG liposomes and compound [2]: ~10 nm
Percentage of compound bound to DOPG vesicles (pelleted) [3]: 60–95%
Effect on lag phase of α-syn aggregation (α-syn; 20 μM α-syn, 20 μM compound): modestly increased the lag phase
αSO binding signal in sandwich ELISA vs positive control (αSO): to a smaller extent
Compound: COc1ccccc1CNCCCCCCNCCCCCCCCNCCCCCCNCc1ccccc1OC [A6, Methoctramine]

Compound: N.N.O=C([O-])C1(C(=O)[O-])CCC1.[Pt+2] [A9, Carboplatin]
Response in dose-response calcein assay [1]: failed to show any response

Compound: N.N.[Cl][Pt][Cl] [A8, Cisplatin]
Percentage of compound bound to DOPG vesicles (pelleted) [3]: 0–2%

Rh of αSOs-Alexa488 after binding to ligand (αSOs-Alexa488 [4]; 100–150 μM ligand, αSO alone 10 nm): ~12.5 nm
Compound: Serine-tRNA ligase [SerRS]
Reduction of half-time of α-syn fibrillation (α-syn; 20 μM α-syn, 1 μM ligand): more than 3 fold

Percentage of compound bound to DOPG vesicles (pelleted) [3]: 60–95%
Compound: CC(C)(C)CC(C)(C)c1ccc(OCCOCC[N+](C)(C)Cc2ccccc2)cc1 [A3, Benzethonium]

Apparent size (Rh) of αSOs-Alexa488 in the presence of DOPG liposomes and compound [2]: ~10 nm
Percentage of compound bound to DOPG vesicles (pelleted) [3]: 60–95%
Decrease of half-time of fibrillation compared to α-syn alone (α-syn; 20 μM α-syn, 20 μM compound): ~2 fold
Kd (αSO): 130 ± 40 µM
αSO binding signal in sandwich ELISA vs positive control (αSO): decrease in binding
Compound: [H]/N=C(\N/C(=N/[H])NCCCCCCNC(=N)NC(=N)Nc1ccc(Cl)cc1)Nc1ccc(Cl)cc1 [A1, Chlorhexidine]

Apparent size (Rh) of αSOs-Alexa488 in the presence of DOPG liposomes and compound [2]: ~10 nm
Percentage of α-syn monomers in αSO sample (αSOs-Alexa488 [5]): 23%
Percentage of compound bound to DOPG vesicles (pelleted) [3]: 60–95%
Decrease of half-time of fibrillation compared to α-syn alone (α-syn; 20 μM α-syn, 20 μM compound): ~2 fold
Kd (αSO): 120 ± 90 µM
αSO binding signal in sandwich ELISA vs positive control (αSO): decrease in binding
Compound: Cc1cc(C(C)(C)CC(C)(C)C)ccc1OCCOCC[N+](C)(C)Cc1ccccc1 [A2, Methyl benzethonium]

Compound: C/C=C1/[C@H](O[C@@H]2O[C@H](CO)[C@@H](O)[C@H](O)[C@H]2O)OC=C(C(=O)OC)[C@H]1CC(=O)OCCc1ccc(O)c(O)c1 [oleuropein]
Inhibition of calcein release ([6]; negative control): weak or no inhibitory effect

Response in dose-response calcein assay [1]: failed to show any response
Compound: CC(C)=CC[C@@H](O)C1=CC(=O)c2c(O)ccc(O)c2C1=O [A7, Shikonin]
αSO binding signal in sandwich ELISA vs positive control (αSO): slightly higher absorption than the positive control

Effect of protein ligand on α-syn aggregation (ThT, words) (α-syn; 20 μM α-syn monomer, 1 μM ligand): dramatic reduction in aggregation
Compound: Cofilin-1 [Cfl1]
Change in Rh of αSOs-Alexa488 on titration with ligand (αSOs-Alexa488 [4]; up to 150 μM ligand, in solution): little change in Rh

Response in dose-response calcein assay [1]: failed to show any response
Effect on α-syn fibril formation (ThT, words) (α-syn; 20 μM α-syn, 20 μM compound): completely inhibited fibril formation
Compound: C=C1c2cccc(O)c2C(=O)C2=C(O)[C@]3(O)C(=O)C(C(N)=O)=C(O)[C@@H](N(C)C)[C@@H]3[C@@H](O)[C@H]12 [A5, Metacycline]
αSO binding signal in sandwich ELISA vs positive control (αSO): slightly higher absorption than the positive control

Compound: CC(C)[C@@H](CC[C@@H](C)[C@H]1CC[C@H]2[C@@H]3[C@H](O)C[C@H]4C[C@@H](NCCCNCCCCN)CC[C@]4(C)[C@H]3CC[C@]12C)OS(=O)(=O)O [squalamine]
Suppression of αSO toxicity [7]: completely suppress the toxicity of αSOs

Apparent size (Rh) of αSOs-Alexa488 in the presence of DOPG liposomes and compound [2]: 50 nm
Percentage of α-syn monomers in αSO sample (αSOs-Alexa488 [5]): 22%
Percentage of compound bound to DOPG vesicles (pelleted) [3]: 0–2%
Effect on α-syn fibril formation (ThT, words) (α-syn; 20 μM α-syn, 20 μM compound): completely inhibited fibril formation
Compound: O=C(O[C@@H]1Cc2c(O)cc(O)cc2O[C@@H]1c1cc(O)c(O)c(O)c1)c1cc(O)c(O)c(O)c1 [EGCG]
Inhibition of calcein release ([6]; positive control): completely inhibits calcein release
